According to patent US8003636B2, “Certain crystalline diphenylazetidinone hydrates, pharmaceutical compositions thereof and methods for their use” (Sanofi-Aventis Deutschland GmbH, priority 2007, dated 2011):
One block for each compound: values may come before it.

Experiments:
[1] = Test of the dissolution rate (USP 27 paddle apparatus); format: physicochemical; conditions: for release [%]: 20 mg in 1000 ml 0.1% aqueous SDS, 37° C., 75 rpm paddle, mean of three
Experimental: The dissolution rate of the crystalline hydrates of the formula I was tested as follows: […]
The dissolution rate is measured in a standard apparatus (paddle) according to the US Pharmacopeia (USP 27) at 37° C. The stirrer speed is 75 rpm.
20 mg of the substance to be examined are added to 1000 ml of a 0.1% strength aqueous sodium dodecylsulfate (SDS) solution. After 15, 30, 45 and 60 minutes, samples of 20 ml are taken.
The portion dissolved is determined photometrically at 256 nm using a comparison solution. The measurement is carried out in 10 mm cuvettes using, for example, a Perkin Elmer Lambda 25 photometer. The samples are measured directly after removal of the samples. In each case, a mean is calculated from three determinations.
The comparison solution is prepared as follows: 2-3 mg of the batch used are dissolved in 2 ml of dimethylformamide in a measuring flask. The volume is then made up to 100.0 ml using 0.1% strength SDS solution.
The amorphous compound of the formula I used in Example 2 was compared to the crystalline compound of the formula I obtained in the same Example 2.

Cholesterol absorption = test: Effect on cholesterol absorption + 3H-taurocholic acid elimination via fecal elimination; format: in vivo, NMRI mice; conditions: dose which doubles fecal elimination of TCA or cholesterol vs control group, peroral, feces collected over 24 h
Experimental: Effect on Cholesterol Absorption+^3H-Taurocholic Acid Elimination via Fecal Elimination in Mice, Rats or Hamsters
NMRI mice, Wistar rats or Golden Syrian hamsters (in groups of n=4-6) are kept with a standard diet (Altromin, Lage (Lippe), Germany) in metabolic cages. The afternoon prior to the administration of the radioactive tracers (^14C-cholesterol) the feed is withdrawn, and the animals are adapted to the cage wires.
In addition, 24 hours prior to the peroral administration of the test meal (^14C-cholesterol in Intralipid® 20, Pharmacia-Upjohn), the animals are labelled s.c. with ^3H-TCA (taurocholic acid) (for example 1 μCi/mouse to 5 μCi/rat).
Cholesterol absorption test: 0.25 ml/mouse Intralipid® 20 (Pharmacia-Upjohn) (spiked with 0.25 μCi ^14C-cholesterol in 0.1 mg of cholesterol) is administered perorally using a stomach tube. […]
The feces are collected over a period of 24 h: the fecal elimination of ^14C-cholesterol and 3H-taurocholic acid (TCA) is determined after 24 hours. […]
The total weight is determined, the sample is made up with water to a defined volume and then homogenized, an aliquot is evaporated to dryness and incinerated in an Oximate (Model 307, Packard, for the incineration of radioactively labelled samples): the amount of radioactive ^3H—H2O und ^14C—CO2 is extrapolated to the amount of ^3H-taurocholic acid or ^14C-cholesterol eliminated (dual isotope technique). […]

[2] = Water content on storage at 23° C./60% relative atmospheric humidity; format: physicochemical; conditions: for Water content (%): previously dried to 0.8% water
Experimental: The hydrate obtained in Example 2 was dried under reduced pressure at 50° C. until a water content of 0.8% had been reached. The crystalline product was stored at 23° C./60% relative atmospheric humidity.

[3] = storage time 0.5 h at 23° C./60% relative humidity
[4] = storage time 2 h at 23° C./60% relative humidity
[5] = storage time 4 h at 23° C./60% relative humidity
[6] = storage time 6 h at 23° C./60% relative humidity
[7] = storage time 24 h at 23° C./60% relative humidity

- release [%] ([1]; 15 min): 30.0%
- release [%] ([1]; 30 min): 41.3%
- release [%] ([1]; 45 min): 44.7%
- release [%] ([1]; 60 min): 46.2%
Structure (SMILES): COc1ccc([C@@H]2[C@@H](CC[C@H](O)c3ccc(F)cc3)C(=O)N2c2ccc(CNC(=O)CCCCCCCCCCC(=O)NC[C@H](O)[C@@H](O)[C@H](O)[C@H](O)CO)cc2)cc1 [Amorphous compound of the formula II, reference compound]

- release [%] ([1]; 15 min, listed as Crystalline compound of the formula I): 88.0%
- release [%] ([1]; 30 min, listed as Crystalline compound of the formula I): 90.0%
- release [%] ([1]; 45 min, listed as Crystalline compound of the formula I): 94.6%
- release [%] ([1]; 60 min, listed as Crystalline compound of the formula I): 98.7%
Structure (SMILES): COc1ccc([C@@H]2[C@@H](CC[C@H](O)c3ccc(F)cc3)C(=O)N2c2ccc(CNC(=O)CCCCCCCCCCC(=O)NC[C@H](O)[C@@H](O)[C@H](O)[C@H](O)CO)cc2)cc1 [Example 2]
- ED200 value (fecal elimination [mg/mouse]) (Cholesterol absorption): 0.01 mg/mouse
- amount in solution relative to the amorphous active ingredient ([1]; after 15 minutes): almost three times the amount of the amorphous active ingredient

- n (hydrate water per formula I) [2, 3]: 0.5
- Water content (%) [2, 3]: 1.1%
- n (hydrate water per formula I) [2, 4]: 1.09
- Water content (%) [2, 4]: 2.4%
- n (hydrate water per formula I) [2, 5]: 1.14
- Water content (%) [2, 5]: 2.5%
- n (hydrate water per formula I) [2, 6]: 1.09
- Water content (%) [2, 6]: 2.4%
- n (hydrate water per formula I) [2, 7]: 1.14
- Water content (%) [2, 7]: 2.5%
Structure (SMILES): COc1ccc([C@@H]2[C@@H](CC[C@H](O)c3ccc(F)cc3)C(=O)N2c2ccc(CNC(=O)CCCCCCCCCCC(=O)NC[C@H](O)[C@@H](O)[C@H](O)[C@H](O)CO)cc2)cc1 [Example 6]
